The text below walks through data of patent US20220041559A1, “BENZO-AND PYRIDO-PYRAZOLES AS PROTEIN KINASE INHIBITORS” (ROTTAPHARM BIOTECH S.R.L., priority 2019, published 2022).

Data set [1] is described as follows: Pharmacokinetics in CD1 mice, iv and po. Format: in vivo. Particulars: 3 mg/kg; for Kp: brain and plasma, read-out: B/P (brain to plasma ratio); for half-life: read-out: t½* (converted).
The target of the next data set is human FynB (Homo sapiens, UniProt P06241). Description: Inhibition of FynB-induced Tau(Y18)-phosphorylation (cell-based assay, HEK293). Here is the method:
HEK293 cells (Human Embryonic Kidney 293) were seeded at 6×10^5 in poly-D-lysine 12 w microplates and grown adherent in medium DMEM/10% FBS at 37° C. with 5% CO2. After 24 h, cells were transfected in order to over-express either constitutively active form of human FynB and Tau protein (isoform 0N4R), through an optimized Lipofectamine® 3000 Transfection protocol (Life Technologies™). A non-transfected sample (negative control) was included in every experiment.
Twenty-four hours from transfection, treatments of cells were performed by adding fresh medium containing diluent (DMSO 0.1% final concentration) or test compounds. The incubation was carried out for 6 or 24 hours at 37° C. with 5% CO2. All experimental conditions were performed in duplicate.
At the end of the incubation, the medium was removed and cellular lysates were obtained by adding M-PER lysis buffer containing a 1× Protease/Phosphatase inhibitors cocktail. Then, lysates were transferred into Eppendorf tubes, sonicated and stored at −80° C.
Protein content was measured by Bradford method. Lysates were analyzed by a customized ELISA assay for Tau phosphorylation (Tyrosine 18 residue-Fyn mediated) and Total amount determination. The net OD values were used to calculate the inhibitory effect of compounds.

The test system of another data set is U87MG-luc tumor cells. Description: Reduction of tumor growth in intracranial U87MG-luc glioblastoma bearing mice. In kind it is in vivo, athymic Nude mice. Particulars: 50 mg/kg orally once a day, days 9-19. Here is the method: Human U87MG cells (Glioblastoma Cancer cell line) were engineered to express the luciferase gene (U87MG-luc). Cultured U87MG-luc tumor cells were intracranially injected in athymic Nude mice. Eight days from injection mice were randomised on the basis of luminescence values emitted by luciferase-expressing U87M-luc tumor cells and divided into 2 treatment groups. The treatment started on day 9 and lasted 10 days. Mice were orally dosed with vehicle or with compound 5 of invention (50 mg/kg, once a day). The tumor growth was evaluated by real-time Bioluminescence Imaging at the end of the treatments period (day 19) and on day 26 and 33, form the cell injection. The tumour growth was reduced in mice treated with compound 5 compared to mice treated with vehicle alone.

For the next data set, the target named is T1, FYN (Homo sapiens, UniProt P06241).
T1 construct: purchased CarnaBioscience
Description: Z'-LYTE in vitro kinase assay, FYN kinase inhibition. Format: biochemical. Put shortly:
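Active FYN incubated with Z′-LYTE Tyr 2 peptide, near-Km ATP and compound (10^−10 to 10^−5 M final, 1% DMSO) in 50 mM Hepes pH 7.5, 10 mM MgCl2, 1 mM EGTA, 0.01% Brij-35, 60 min at 25° C. Protease development then coumarin/fluorescein FRET readout gives % phosphorylation; IC50 by non-linear fitting.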

The next data set deals with EGFR (Homo sapiens, UniProt P00533). Description: Inhibition of EGF-induced EGFR (Y1068)-phosphorylation (cell-based assay, U87MG). Further details: endogenous in cells; host or cells: U87MG. The conditions noted are these: EGF 10 ng/ml, Western blot. Here is the method:
U87MG cells (Uppsala 87 Malignant Glioma, a human glioblastoma cell line from ATCC) were plated at 3×10^5 cells/well in 12 w microplates and grown adherent in medium DMEM+10% FBS at 37° C. with 5% CO2. After 24 h, medium was removed and starvation was induced overnight in medium DMEM+0.1% FBS (medium starvation). At the end of incubation, treatment of cells was performed by medium replacement and by adding fresh medium containing or not diluent or test compounds (DMSO 0.1% final concentration) diluted in medium starvation. After 1 hour, EGF stimuli (diluted in medium starvation, 10 ng/ml final concentration) was added to each sample, with the exception of basal sample; plate was then incubated for 15 min at 37° C. with 5% CO2. At the end of the incubation, the medium was removed and cellular lysates were obtained by adding M-PER lysis buffer containing 1× Protease/Phosphatase inhibitors cocktail. Then, lysates were transferred into Eppendorf tubes, sonicated and stored at −80° C.
Protein content was measured by Bradford method. Lysates were analyzed by Western blot for EGFR phosphorylation (Tyrosine 1068) and total receptor amount determination. Densitometric analysis of sample lanes were performed by ImageQuant TL software (GE Healthcare Life Sciences). […]
(In western blotting, separated proteins are transferred to a membrane and probed.)

pIC50: −log10 of the molar value. Like-named read-outs stand apart in the source and are kept apart here.

Chain of human FynB (P06241 271-524 limits assumed): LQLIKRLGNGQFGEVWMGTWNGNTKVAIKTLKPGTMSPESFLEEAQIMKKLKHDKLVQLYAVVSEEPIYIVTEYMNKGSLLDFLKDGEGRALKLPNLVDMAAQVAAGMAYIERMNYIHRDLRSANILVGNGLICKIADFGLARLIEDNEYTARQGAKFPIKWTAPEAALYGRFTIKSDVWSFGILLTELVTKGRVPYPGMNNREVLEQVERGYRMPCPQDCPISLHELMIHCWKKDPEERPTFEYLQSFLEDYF
T1 sequence (P06241 whole entry): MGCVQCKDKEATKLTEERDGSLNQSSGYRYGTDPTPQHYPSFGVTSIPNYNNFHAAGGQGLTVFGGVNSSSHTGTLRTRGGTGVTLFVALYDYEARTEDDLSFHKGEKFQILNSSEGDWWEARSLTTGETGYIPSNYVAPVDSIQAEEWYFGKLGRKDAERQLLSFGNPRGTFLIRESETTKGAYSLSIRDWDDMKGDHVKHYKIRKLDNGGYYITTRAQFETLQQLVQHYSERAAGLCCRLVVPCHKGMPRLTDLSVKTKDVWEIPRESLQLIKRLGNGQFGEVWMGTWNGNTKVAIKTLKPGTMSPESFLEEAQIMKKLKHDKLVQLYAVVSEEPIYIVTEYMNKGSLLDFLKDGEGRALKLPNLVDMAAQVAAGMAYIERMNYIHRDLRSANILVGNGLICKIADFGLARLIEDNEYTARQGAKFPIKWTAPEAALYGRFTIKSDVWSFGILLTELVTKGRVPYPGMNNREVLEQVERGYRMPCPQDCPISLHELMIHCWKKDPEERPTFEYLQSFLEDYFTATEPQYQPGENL
Chain of EGFR (P00533 25-1210): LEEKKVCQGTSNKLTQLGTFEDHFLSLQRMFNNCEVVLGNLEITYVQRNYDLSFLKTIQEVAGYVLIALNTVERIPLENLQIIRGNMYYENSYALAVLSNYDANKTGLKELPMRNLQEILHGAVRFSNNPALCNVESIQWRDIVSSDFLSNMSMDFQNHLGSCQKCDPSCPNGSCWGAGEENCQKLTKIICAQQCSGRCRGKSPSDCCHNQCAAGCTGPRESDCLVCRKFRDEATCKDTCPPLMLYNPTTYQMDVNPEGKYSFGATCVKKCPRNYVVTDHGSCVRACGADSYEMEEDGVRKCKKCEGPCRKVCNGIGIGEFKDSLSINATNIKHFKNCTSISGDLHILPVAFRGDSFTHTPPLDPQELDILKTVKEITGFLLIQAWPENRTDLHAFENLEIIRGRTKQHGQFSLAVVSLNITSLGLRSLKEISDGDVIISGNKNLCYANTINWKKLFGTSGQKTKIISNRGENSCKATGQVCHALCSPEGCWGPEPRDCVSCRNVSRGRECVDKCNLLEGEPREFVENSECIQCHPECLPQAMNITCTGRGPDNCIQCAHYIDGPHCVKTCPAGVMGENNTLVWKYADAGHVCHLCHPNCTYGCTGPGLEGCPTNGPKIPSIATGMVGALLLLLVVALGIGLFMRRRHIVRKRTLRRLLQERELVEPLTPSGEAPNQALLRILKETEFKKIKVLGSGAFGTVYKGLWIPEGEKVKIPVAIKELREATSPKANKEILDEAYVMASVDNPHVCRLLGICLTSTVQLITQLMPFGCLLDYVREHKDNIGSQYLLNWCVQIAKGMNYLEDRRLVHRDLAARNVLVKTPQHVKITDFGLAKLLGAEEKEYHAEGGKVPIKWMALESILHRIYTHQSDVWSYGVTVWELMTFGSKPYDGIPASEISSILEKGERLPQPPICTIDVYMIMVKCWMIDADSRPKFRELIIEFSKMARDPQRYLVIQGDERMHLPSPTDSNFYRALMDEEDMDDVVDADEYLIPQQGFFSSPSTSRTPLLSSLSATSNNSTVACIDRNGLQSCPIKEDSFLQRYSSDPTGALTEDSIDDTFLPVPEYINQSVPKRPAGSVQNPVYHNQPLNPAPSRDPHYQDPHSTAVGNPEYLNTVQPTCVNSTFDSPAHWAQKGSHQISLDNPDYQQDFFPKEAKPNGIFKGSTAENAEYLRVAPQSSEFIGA

As a reminder, the AUC(0-inf) is the area under the concentration-time curve extrapolated to infinity. A higher AUC(0-inf) goes with high exposure. A word on the AUC(0-t): it is exposure summed from dosing to a finite time, without extrapolation to infinity. A low value points to less exposure. Broadly, the Cmax is the peak of the concentration-time curve. By Tmax is commonly meant the time from dosing to the highest level. The bioavailability is dose-corrected exposure relative to a reference, in per cent. The pIC50 is the negative decadic logarithm of the IC50, by convention in mol/L. High values mean a small IC50, low ones a large IC50. As for `CN1CCC(c2ccc(C(=O)Nc3n[nH]c4nc(Nc5ccccc5F)ccc34)cc2)CC1` [Compound 5, N-(6-((2-fluorophenyl)amino)-1H-pyrazolo[3,4-b]pyridin-3-yl)-4-(1-methylpiperidin-4-yl)benzamide], the Tlast in data set [1] (iv) and in data set [1] (po) was 24 h in each case. In addition, the Kp is 1.2 in data set [1] (mouse, calculated on AUC iv) and 1.4 in data set [1] (mouse, calculated on AUC po). For the same molecule, the area under the curve AUC(0-inf) in data set [1] (mouse, plasma, iv) amounted to 1640 ng·h/mL; in data set [1] (mouse, plasma, po) it was 1180 ng·h/mL. For the same molecule, the area under the curve AUC(0-t) in data set [1] (mouse, plasma, iv) is 1620 ng·h/mL; in data set [1] (mouse, plasma, po) it was 1170 ng·h/mL. In addition, the clearance in data set [1] (mouse, plasma, iv, read-out: CLp) was 30.4 mL/min/kg. Besides, the Vd in data set [1] (mouse, plasma, iv, read-out: Vz) is 10.2 L/kg. The half-life in data set [1] (mouse, plasma, iv) is 234 min; in data set [1] (mouse, plasma, po), 240 min. This molecule also came in with a maximum concentration (Cmax) in data set [1] (mouse, plasma, po) of 331 nM. Besides, the time to peak (Tmax) in data set [1] (mouse, plasma, po) is 2 h. The bioavailability in data set [1] (mouse, plasma, po) was 72%. Besides, the negative-log IC50 (pIC50) is 6.52 against human FynB (HEK293 over-expressing FynB and Tau 0N4R, incubation 6 or 24 hours, ELISA); 7.16 on FYN (near-Km ATP, 60 minutes at 25° C.); 5.52 against EGFR. Also, the “Inhibition of FynB-induced Tau(Y18)-phosphorylation, result in words” value at human FynB (summary of Table 20) was “best inhibitors”. The “inhibition of tumour growth (percentage of radiance inhibition)” value is 24.9% with U87MG-luc tumor cells (day 19), 34.4% in the data set on U87MG-luc tumor cells (day 26) and 60.4% in the data set with U87MG-luc tumor cells (day 33). The “FYN kinase inhibition, result in words” value at FYN (Table 17) is “more active”.
